Patent US20250000870A1, “Pharmaceutical Combinations for Treating Cancer” (Cellestia Biotech AG, priority 2021, published 2025)
Structures can show the parent of a compound that is named as a salt.

Legend:
Assay type in all cases: cell-based, Human
Conditions in all cases: Drug 2 in combination with 6-(4-(tert-butyl)phenoxy)pyridin-3-amine (Drug 1), 72 hours
[1] = tested on: MCF-7 ER+ breast cancer cells; test: alamarBlue combination screening with 6-(4-(tert-butyl)phenoxy)pyridin-3-amine, ZIP synergy analysis
Procedure: (§1) The kinase inhibitors listed in table 1 were used in combination with 6-(4-(tert-butyl) phenoxy)pyridin-3-amine.
(§2) Cells were treated with a combination of 6-(4-(tert-butyl) phenoxy)pyridin-3-amine (concentration range from 150 nM to […]) and chemical compounds listed in table 1 (concentration range from 75 nM to 20 μM) for 72 hours. Concentration range used for each compound was determined based on individual IC50 values i.e concentration range selected flanks IC50 value of each compound. Each of the 8 compounds were combined with 6-(4-(tert-butyl) phenoxy)pyridin-3-amine at different concentrations generating an 8×10 matrix in duplicates, alamarBlue® readout was taken using Infinite® F500 (Tecan) plate reader. All volumes (cells and alamarBlue®) were dispensed using Multidrop Combi dispenser using a standard cassette (Speed MEDIUM).
(§3) Compound management and dispensing: All compounds were prepared as stock solution at 10 mM in pure DMSO. […] To create 384 well working plates, different volumes of stock solutions were plated into 384 well plates by using ECHO 550 acoustic dispenser (Labcyte) to generate the final concentration of interest for each drug, either alone or in matrix combination.
(§4) alamarBlue® viability assay: alamarBlue® proliferation assays were performed to determine the growth kinetics of compound treated cells, alamarBlue® consists of a cell permeable substrate resazurin. In metabolically active and proliferating cells, resazurin is converted to resorufin due to an intrinsic reducing power of live cells and produces a red fluorescence. Therefore, production of resorufin serves as an indicator of the viability of the cell population. Proliferation assays were performed by seeding 1500 cells/well in 384 well plate format. Cells were treated in duplicates with pre-determined concentration of compounds as a single agent or in combination with 6-(4-(tert-butyl) phenoxy)pyridin-3-amine for 72 hours. To determine growth kinetics, alamarBlue® (Invitrogen) was added to each well and incubated for 4 hours, alamarBlue® readout was taken using Infinite® F500 (Tecan) plate reader.
(§5) Data analysis for combination screening: Synergistic interaction analysis was performed using SynergyFinder software as described by Ianevski A, He L, Aittokallio T, Tang J. Bioinformatics. […] To mitigate the impact of edge-effects, correction was applied for all analyses. Regions of interest were defined as concentration combination showing both synergistic interaction and significant absolute activity (>60%).

[2] = tested on: HCC1187 triple negative breast cancer cells; test: as above
Procedure: as §1, §2, §3, §4, §5

[3] = tested on: RPMI-8402 leukemic cells; test: as above
Procedure: as §1, §2, §3, §4, §5

[4] = tested on: MV-4-11 leukemic cells; test: PrestoBlue combination screening with 6-(4-(tert-butyl)phenoxy)pyridin-3-amine, ZIP synergy analysis
Procedure: (§6) Cell lines and drug combinations: Human T-ALL, AML and breast cancer cell lines RPMI-8402, MV-4-11 and HCC1187 were cultured under mycoplasma free conditions at 37° C. in RPMI-1640 media supplemented with 10% FCS (RPMI-8402 and HCC1187 cells) and IMDM media supplemented with 10% FCS (MV-4-11 cells). The kinase inhibitors listed in table 5 were used in combination with 6-(4-(tert-butyl) phenoxy)pyridin-3-amine.
(§7) 6-(4-(tert-butyl) phenoxy)pyridin-3-amine combination screening: Human cancer cells RPMI-8402, MV-4-11 and HCC1187 were seeded at a density of 10′000 cells/well in 96 well plate format and cultured in 100 μl of growth media. Cells were treated with a combination of 6-(4-(tert-butyl) phenoxy)pyridin-3-amine (concentration range from 30 nM to 100 μM) and chemical compounds listed in table 5 (concentration range from 1 μM to 100 μM) for 72 hours. Concentration range used for each compound was determined based on individual IC50 values i.e concentration range selected flanks IC50 value of each compound. Each of the 2 compounds were combined with 6-(4-(tert-butyl) phenoxy)pyridin-3-amine at different concentrations generating an 6×9 matrix in duplicates. PrestoBlue® readout was taken using Sense (Hidex) plate reader.
(§8) PrestoBlue® viability assay: PrestoBlue® proliferation assays were performed to determine the growth kinetics of compound treated cells. PrestoBlue® consists of a cell permeable substrate resazurin. In metabolically active and proliferating cells, resazurin is converted to resorufin due to an intrinsic reducing power of live cells and produces a red fluorescence. Therefore, production of resorufin serves as an indicator of the viability of the cell population. Proliferation assays were performed by seeding 10′000 cells/well in 96 well plate format. Cells were treated in triplicates (single agent) or duplicates (combinations) with pre-determined concentration of compounds as a single agent or in combination with 6-(4-(tert-butyl) phenoxy)pyridin-3-amine for 72 hours. To determine growth kinetics, PrestoBlue® (Invitrogen) was added to each well and incubated for 4 hours. PrestoBlue® readout was taken using Sense (Hidex) plate reader.
(§9) Data analysis for combination screening: Synergistic interaction analysis was performed using SynergyFinder software as described by Ianevski A, He L, Aittokallio T, Tang J. Bioinformatics. 2017 Aug. 1;33 (15): 2413-2415. doi: 10.1093/bioinformatics/btx162.SynergyFinder: a web application for analyzing drug combination dose-response matrix data). […] Regions of interest were defined as concentration combination showing both synergistic interaction and significant absolute activity (>60%).

[5] = tested on: HCC1187 triple negative breast cancer cells; test: as above
Procedure: as §6, §7, §8, §9

[6] = tested on: RPMI-8402 leukemic cells; test: as above
Procedure: as §6, §7, §8, §9

O=C(Nc1c[nH]nc1-c1nc2cc(CN3CCOCC3)ccc2[nH]1)NC1CC1 [AT9283, N-Cyclopropyl-N′-[3-[6-(4-morpholinylmethyl)-1H-benzimidazol-2-yl]-1H-pyrazol-4-yl]-urea]
Conclusion [1]: Synergistic (>0 implies synergistic interaction)
ZIP score [1]: 8.38
Conclusion [2]: Synergistic (>0 implies synergistic interaction)
ZIP score [2]: 12.99
Conclusion [3]: Synergistic (>0 implies synergistic interaction)
ZIP score [3]: 12.40

CC#CC(=O)N1CCC[C@H]1c1nc(-c2ccc(C(=O)Nc3ccccn3)cc2)c2c(N)nccn12 [Acalabrutinib, 4-[8-amino-3-[(2S)-1-(1-oxo-2-butyn-1-yl)-2-pyrrolidinyl]imidazo[1,5-a]pyrazin-1-yl]-N-2-pyridinyl-benzamide]
Conclusion [1]: Synergistic (>0 implies synergistic interaction)
ZIP score [1]: 6.86
Conclusion [2]: Synergistic (>0 implies synergistic interaction)
ZIP score [2]: 3.33
Conclusion [3]: Synergistic (>0 implies synergistic interaction)
ZIP score [3]: 0.70

CNC(=O)c1ccccc1Sc1ccc2c(/C=C/c3ccccn3)n[nH]c2c1 [Axitinib, N-Methyl-2-[[3-[(E)-2-pyridin-2-ylethenyl]-1H-indazol-6-yl]sulfanyl]benzamide]
Conclusion [4]: Synergistic (>0 implies synergistic interaction)
Conclusion [5]: Synergistic (>0 implies synergistic interaction)
Conclusion [6]: Synergistic (>0 implies synergistic interaction)

Cn1c(=O)n(-c2ccc(C(C)(C)C#N)cc2)c2c3cc(-c4cnc5ccccc5c4)ccc3ncc21 [BEZ235, 4-[2,3-dihydro-3-methyl-2-oxo-8-(3-quinolinyl)-1H-imidazo[4,5-c]quinolin-1-yl]-a,a-dimethyl-benzeneacetonitrile]
Conclusion [1]: Synergistic (>0 implies synergistic interaction)
ZIP score [1]: 17.40
Conclusion [2]: Synergistic (>0 implies synergistic interaction)
ZIP score [2]: 13.94
Conclusion [3]: Synergistic (>0 implies synergistic interaction)
ZIP score [3]: 7.20

C[C@@H](Oc1cc(-c2cnn(C3CCNCC3)c2)cnc1N)c1c(Cl)ccc(F)c1Cl [Crizotinib, 3-[(1R)-1-(2,6-dichloro-3-fluorophenyl)ethoxy]-5-[1-(4-piperidinyl)-1H-pyrazol-4-yl]-2-pyridinamine]
Conclusion [2]: No (0 implies no interaction)
ZIP score [2]: 0.10
Conclusion [3]: Synergistic (>0 implies synergistic interaction)
ZIP score [3]: 2.38

CC[C@H](Nc1ncnc2[nH]cnc12)c1nc2cccc(F)c2c(=O)n1-c1ccccc1 [Idelalisib, 5-Fluor-3-phenyl-2-{(1S)-1-[(7H-purin-6-yl)amino]propyl}chinazolin-4 (3H)-on]
Conclusion [3]: Synergistic (>0 implies synergistic interaction)
ZIP score [3]: 1.12

COc1cc2nccc(Oc3ccc(NC(=O)NC4CC4)c(Cl)c3)c2cc1C(N)=O [Lenvatinib, 4-(3-chloro-4-(3-cyclopropylureido)phenoxy)-7-methoxyquinoline-6-carboxamide]
Conclusion [4]: Synergistic (>0 implies synergistic interaction)
ZIP score [4]: 5.9
Conclusion [5]: Synergistic (>0 implies synergistic interaction)
ZIP score [5]: 11.2
Conclusion [6]: Synergistic (>0 implies synergistic interaction)
ZIP score [6]: 41.4

NC1(c2ccc(-c3nc4ccn5c(=O)[nH]nc5c4cc3-c3ccccc3)cc2)CCC1 [MK-2206, 8-[4-(1-aminocyclobutyl)phenyl]-9-phenyl-1,2,4-triazolo[3,4-f][1,6]naphthyridin-3 (2H)-one, dihydrochloride]
Conclusion [1]: Synergistic (>0 implies synergistic interaction)
ZIP score [1]: 16.97
Conclusion [2]: Synergistic (>0 implies synergistic interaction)
ZIP score [2]: 14.89
Conclusion [3]: Synergistic (>0 implies synergistic interaction)
ZIP score [3]: 8.51

CO[C@H]1C[C@@H]2CC[C@@H](C)[C@@](O)(O2)C(=O)C(=O)N2CCCC[C@H]2C(=O)O[C@H]([C@H](C)C[C@@H]2CC[C@@H](OC(=O)C(C)(CO)CO)[C@H](OC)C2)CC(=O)[C@H](C)/C=C(\C)[C@@H](O)[C@@H](OC)C(=O)[C@H](C)C[C@H](C)/C=C/C=C/C=C/1C [Temsirolimus, 42-[3-Hydroxy-2-(hydroxymethyl)-2-methylpropanoate]-rapamycin]
Conclusion [1]: Synergistic (>0 implies synergistic interaction)
ZIP score [1]: 23.81
Conclusion [2]: Synergistic (>0 implies synergistic interaction)
ZIP score [2]: 23.04
Conclusion [3]: Synergistic (>0 implies synergistic interaction)
ZIP score [3]: 18.03

CC(C)c1cc(CNc2nc(Nc3cc(C4CC4)[nH]n3)cc(N3CCN(C)CC3)n2)on1 [XL228, N4-(5-cyclopropyl-1H-pyrazol-3-yl)-N2-[[3-(1-methylethyl)-5-isoxazolyl]methyl]-6-(4-methyl-1-piperazinyl)-2,4-pyrimidinediamine]
Conclusion [1]: Synergistic (>0 implies synergistic interaction)
ZIP score [1]: 21.86
Conclusion [2]: Synergistic (>0 implies synergistic interaction)
ZIP score [2]: 23.67
Conclusion [3]: Synergistic (>0 implies synergistic interaction)
ZIP score [3]: 15.0
